The values below are quoted from earlier work in patent US20170000414A1, “Use of Blood Flow Parameters to Monitor or Control the Dosing of Anti-Platelet Agents” (RHEOVECTOR, LLC, priority 2014, published 2017).

The conditions of data set [1]: aspirin 81 mg; healthy individuals.
The conditions of data set [2]: 18,624 patients having prior acute coronary syndrome.

SMILES strings stand for the structures.

On to `CC(=O)Oc1ccccc1C(=O)O` [Aspirin, acetylsalicylic acid], for which the “effect on blood viscosity” value in data set [1] is given as “no significant effect”.
As to `CCCSc1nc(N[C@@H]2C[C@H]2c2ccc(F)c(F)c2)c2nnn([C@@H]3C[C@H](OCCO)[C@@H](O)[C@H]3O)c2n1` [Ticagrelor], the “rate of cardiovascular disease (CVD) events and death compared with clopidogrel” value in data set [2] is on record as “reduce significantly”.
`COC(=O)[C@H](c1ccccc1Cl)N1CCc2sccc2C1` [clopidogrel]: for the setting “clopidogrel 75 mg, 19,185 patients with atherosclerosis (symptomatic PAD, recent ischemic stroke or MI)”, the “reducing CVD events or death, compared with aspirin 325 mg” value is on record as “more effective”. Moreover, the relative risk reduction (group entering the trial with symptomatic PAD, p=0.0028) is given as 23.8%. The “reduction in MI, stroke or cardiovascular death rates” value (patients who entered the trial with an ischemic stroke or MI) is “no reduction”.
